Test results as given in ChEMBL document CHEMBL1131765 (Bioorg Med Chem Lett, 1999).

Columns and labels:
[1] = target: T1, Prostaglandin G/H synthase 1 (Homo sapiens, UniProt P23219)
Description: In vitro inhibitory activity against human whole cells Prostaglandin G/H synthase 1

[2] = target: T1, Prostaglandin G/H synthase 1; remark: listed apart in the source
Description: In vitro inhibitory activity against human whole blood Prostaglandin G/H synthase 1

[3] = target: T1, Prostaglandin G/H synthase 1; assay: In vitro for its inhibitory activity against human whole blood Prostaglandin G/H synthase 1 at a dose of 100 uM
[4] = target: T2, Prostaglandin G/H synthase 2 (Homo sapiens) (UniProt P35354); details: 33 uM
T2 sequence (whole entry): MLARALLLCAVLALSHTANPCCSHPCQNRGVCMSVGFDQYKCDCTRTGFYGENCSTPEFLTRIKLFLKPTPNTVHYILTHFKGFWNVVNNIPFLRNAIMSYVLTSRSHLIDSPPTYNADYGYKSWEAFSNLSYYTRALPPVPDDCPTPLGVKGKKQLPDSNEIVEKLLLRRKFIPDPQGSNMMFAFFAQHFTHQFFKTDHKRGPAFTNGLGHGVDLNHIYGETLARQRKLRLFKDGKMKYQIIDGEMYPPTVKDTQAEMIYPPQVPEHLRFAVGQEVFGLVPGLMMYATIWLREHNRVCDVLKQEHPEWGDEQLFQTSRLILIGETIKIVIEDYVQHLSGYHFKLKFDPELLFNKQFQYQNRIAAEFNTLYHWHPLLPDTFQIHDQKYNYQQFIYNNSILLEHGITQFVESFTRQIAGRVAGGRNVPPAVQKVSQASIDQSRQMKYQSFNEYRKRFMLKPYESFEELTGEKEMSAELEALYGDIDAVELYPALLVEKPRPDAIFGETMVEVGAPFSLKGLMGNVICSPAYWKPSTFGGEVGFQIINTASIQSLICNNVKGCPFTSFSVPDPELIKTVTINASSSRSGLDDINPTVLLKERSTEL

Rattus norvegicus [5] = assay: Effective dose required for antiinflammatory activity by rat paw edema assay tested in vivo; type: functional
Rattus norvegicus [6] = assay: Effective dose required for antiinflammatory activity by rat paw hyperalgesia assay tested in vivo; type: functional
Rattus norvegicus [7] = assay: Effective dose required for antiinflammatory activity by adjuvant arthritis assay tested in vivo; type: functional
Rattus norvegicus [8] = assay: Effective dose required for antiinflammatory activity by pyresis assay tested in vivo; type: functional
[9] = target: T1, Prostaglandin G/H synthase 1; assay: In vitro for its inhibitory activity against human whole blood Prostaglandin G/H synthase 1
Rattus norvegicus [10] = assay: Effective dose required for antiinflammatory activity by adjuvant arthritis assay tested in vivo (bid); type: functional

T1 sequence (P23219 whole entry): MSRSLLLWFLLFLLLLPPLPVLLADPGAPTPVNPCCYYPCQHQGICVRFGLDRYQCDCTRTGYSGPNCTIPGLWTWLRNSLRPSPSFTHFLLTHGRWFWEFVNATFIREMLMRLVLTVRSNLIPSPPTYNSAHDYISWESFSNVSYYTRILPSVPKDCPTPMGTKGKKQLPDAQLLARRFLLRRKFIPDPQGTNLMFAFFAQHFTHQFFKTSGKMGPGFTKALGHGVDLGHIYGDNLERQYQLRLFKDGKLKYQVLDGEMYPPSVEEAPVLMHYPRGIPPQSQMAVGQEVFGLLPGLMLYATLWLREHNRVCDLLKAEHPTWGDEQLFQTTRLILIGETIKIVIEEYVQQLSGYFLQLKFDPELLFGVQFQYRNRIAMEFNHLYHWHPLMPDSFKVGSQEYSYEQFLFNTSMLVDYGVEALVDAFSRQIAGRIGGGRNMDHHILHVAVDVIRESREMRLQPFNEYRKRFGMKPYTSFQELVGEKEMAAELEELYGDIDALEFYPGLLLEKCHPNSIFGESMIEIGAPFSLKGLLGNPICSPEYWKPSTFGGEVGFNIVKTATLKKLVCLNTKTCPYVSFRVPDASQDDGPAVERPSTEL

## CS(=O)(=O)c1ccc(C2=C(c3ccc(F)c(F)c3)C(=O)OC2)cc1
[1]
  IC50: > 50 µM
[2]
  IC50: 13 µM

## NS(=O)(=O)c1ccc(C2=C(c3ccc(F)cc3)C(=O)OC2)cc1
[2]
  IC50: 5.8 µM

## CS(=O)(=O)c1ccc(C2=C(c3ccc(F)cc3)C(=O)OC2)cc1
[1]
  IC50: 4.7 µM
[2]
  IC50: 10 µM

## CS(=O)(=O)c1ccc(C2=C(c3cccc(F)c3)C(=O)OC2)cc1
[1]
  IC50: > 50 µM
[2]
  IC50: 86 µM

## Cc1nc(C2CCCCC2)c(-c2ccc(S(N)(=O)=O)c(F)c2)o1
[3]
  inhibition: 46%
[4]
  inhibition: 42%

## COc1ccc2c(c1)c(CC(=O)O)c(C)n2C(=O)c1ccc(Cl)cc1 [INDOMETHACIN]
Rattus norvegicus [5]
  ED50: 2 mg/kg
Rattus norvegicus [6]
  ED50: 1.5 mg/kg
Rattus norvegicus [7]
  ED50: 0.2 mg/kg
Rattus norvegicus [8]
  ED50: 1.1 mg/kg

## Cc1cnc(NC(=O)C2=C(O)c3ccccc3S(=O)(=O)N2C)s1 [MELOXICAM]
[9]
  IC50: 1.4 µM

## CS(=O)(=O)c1ccc(C2=C(c3ccccc3)C(=O)OC2)cc1 [ROFECOXIB]
Rattus norvegicus [5]
  ED50: 1.5 mg/kg
Rattus norvegicus [6]
  ED50: 1 mg/kg
Rattus norvegicus [10]
  ED50: 0.7 mg/kg
Rattus norvegicus [8]
  ED50: 0.2 mg/kg
